Data published in US9562057B2, “(Thieno[2,3-b][1,5]benzoxazepin-4-yl)piperazin-1-yl compounds as dual activity H1 inverse agonists/5-HT2A antagonists” (Eli Lilly and Company, priority 2013, dated 2017).
Where a name gives a salt, the structure may show the parent alone.

How the values were obtained:
[1] = molecular target: hERG Channel (Homo sapiens, UniProt Q12809); assay: hERG channel inhibition; conditions: inhibition at 10 μM
Source text: (§1) Further, the compounds of the invention may be tested in binding assays and functional activity assays by well known methods for other physiologically important receptors such as, but not limited to, the hERG channel, other serotonin receptors (specifically 5-HT1B and 5-HT1D receptors, lack of agonist activity at 5-HT2B receptors, 5-HT2C, 5-HT5, 5-HT6, and 5-HT7 receptors), dopaminergic receptors (specifically D1, D2, and D3), GABAA receptors, adrenergic receptors and monoamine transporters.

[2] = molecular target: T1, 5-HT2B (Homo sapiens, UniProt P41595); assay: 5-HT2B binding
T1 sequence (P41595 whole entry, species assumed): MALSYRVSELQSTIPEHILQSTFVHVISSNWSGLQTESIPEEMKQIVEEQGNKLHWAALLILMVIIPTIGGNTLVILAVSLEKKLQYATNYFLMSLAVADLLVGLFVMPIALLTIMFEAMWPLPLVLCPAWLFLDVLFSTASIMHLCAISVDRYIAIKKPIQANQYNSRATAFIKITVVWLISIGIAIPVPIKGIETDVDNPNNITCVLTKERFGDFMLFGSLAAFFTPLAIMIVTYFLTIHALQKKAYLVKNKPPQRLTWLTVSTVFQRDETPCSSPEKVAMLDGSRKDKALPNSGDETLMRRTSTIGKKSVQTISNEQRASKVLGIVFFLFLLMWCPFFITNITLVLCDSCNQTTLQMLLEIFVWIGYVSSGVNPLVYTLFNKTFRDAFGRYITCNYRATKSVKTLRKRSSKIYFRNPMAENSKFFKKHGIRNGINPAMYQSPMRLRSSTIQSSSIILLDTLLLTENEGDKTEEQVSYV
Source text: as §1

[3] = molecular target: T1, 5-HT2B; assay: 5-HT2B antagonist functional activity; assay type: biochemical; conditions: antagonist mode
Source text: as §1

[4] = system: male Wistar rats; assay: Sleep and behavioral monitoring in rats (EEG, EMG, motion); assay type: in vivo; conditions: for Rebound Insomnia Adj. Mean: NREM+REM sleep in 7th-9th hours post-treatment; for Rebound Insomnia Adj. Mean / Cumulative Total sleep Adj. Mean / REM inhibition Adj. Mean / Cumulative NREM sleep Adj. Mean / Locomotor Activity Intensity Adj. Mean: adjusted difference from vehicle; for Cumulative Total sleep Adj. Mean: NREM+REM; for Cumulative Total sleep Adj. Mean / Average Sleep Bout Adj. Mean / Longest Sleep Bout Adj. Mean / Cumulative NREM sleep Adj. Mean / Locomotor Activity Intensity Adj. Mean: first 6 hr. post-treatment; for REM inhibition Adj. Mean: cumulative REM sleep, first 12 hr. post-treatment
Protocol: The compound of the present invention is tested in rats for its ability to increase the amount of sleep or decrease sleep interruption or both without undesired effects such as inhibition of REM sleep, waking motor impairment, and/or rebound insomnia. Test animals are continuously monitored by electro-encephalograms (EEG), electromyograms (EMG), and motion to measure cumulative nonREM sleep, cumulative total sleep, average sleep bout duration, longest sleep bout duration, rebound insomnia, REM sleep inhibition and locomotor activity intensity during wakefulness. Methods for such studies are known in the art (see for example methods described in Edgar D M, Seidel W F. Modafinil induces wakefulness without intensifying motor activity or subsequent rebound hypersomnolence in the rat. J Pharmacology & Experimental Therapeutics 1997; 283: 757-769; van Gelder R N, Edgar D M, Dement W C. Real-time automated sleep scoring: validation of a microcomputer-based system for mice. Sleep 1991, 14: 48-55; and Gross B A, Walsh C M, Turakhia A A, Booth V, Mashour G A, Poe G R. Open-source logic-based automated sleep scoring software using electrophysiological recordings in rats. J Neurosci Methods. 2009; 184(1):10-8.) Studies are conducted as follows:
Adult, male Wistar rats (approximately 270-300 g at time of surgery) are surgically fitted for chronic recording of EEG, EMG, and motion as follows: Rats are surgically prepared with a cranial implant consisting of four stainless steel screws for EEG recording (two frontal [3.9 mm anterior from bregma, and ±2.0 mm mediolaterally] and two occipital [6.4 mm posterior from bregma, ±5.5 mm mediolaterally]), and with two Teflon-coated stainless steel wires for EMG recording (positioned under the nuchal trapezoid muscles). All leads are soldered to a miniature connector (Microtech, Boothwyn, Pa.) prior to surgery. The implant assembly is affixed to the skull by the combination of the stainless steel EEG recording screws, cyanoacrylate applied between the implant connector and skull, and dental acrylic. Locomotor activity is monitored via a miniature transmitter (Minimitter PDT4000G, Philips Respironics, Bend, Oreg.) surgically placed into the abdomen. At least 3 weeks are allowed for recovery.
Each rat is housed individually within a microisolator cage modified with an inserted polycarbonate filter-top riser to allow more vertical headroom. A flexible cable that minimally restricts movement is connected at one end to a commutator afixed to the cage top and at the other end to the animal's cranial implant. Each cage is located within separate, ventilated compartments of a stainless steel sleep-wake recording chamber. Food and water are available ad libitum and the ambient temperature is maintained at about 23±1° C. A 24-hr light-dark cycle (LD 12:12) using fluorescent light is maintained throughout the study. Relative humidity averages approximately 50%. Animals are undisturbed for at least 30 his before and after each treatment.
The vehicle (placebo, methylcellulose 15 centipoise 0.25% in water) or one of the test compound dose levels is administered orally at 1 mL/kg pseudo-randomly such that no rat receives the same treatment twice, and no rat receives more than two of the 8 treatments in any one study. Each rat is removed from its cage for about a minute to be weighed and treated. At least 6 days “washout” period precede and follow each treatment. […]

[5] = molecular target: Adrenergic alpha2B (Homo sapiens, UniProt P18089); assay: Adrenergic alpha2B binding
Sequence of Adrenergic alpha2B (P18089 whole entry): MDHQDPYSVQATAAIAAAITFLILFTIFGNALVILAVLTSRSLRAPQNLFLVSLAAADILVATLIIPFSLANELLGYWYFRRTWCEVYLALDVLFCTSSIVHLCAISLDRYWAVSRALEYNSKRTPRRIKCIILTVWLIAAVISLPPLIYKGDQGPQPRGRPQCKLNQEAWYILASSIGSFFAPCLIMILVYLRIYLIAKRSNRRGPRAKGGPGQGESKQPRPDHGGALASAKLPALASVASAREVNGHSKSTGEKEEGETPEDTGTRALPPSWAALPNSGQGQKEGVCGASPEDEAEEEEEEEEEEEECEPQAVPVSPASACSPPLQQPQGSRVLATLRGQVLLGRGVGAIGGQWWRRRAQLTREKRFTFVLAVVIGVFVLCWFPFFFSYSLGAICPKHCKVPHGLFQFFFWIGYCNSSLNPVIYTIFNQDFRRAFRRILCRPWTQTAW
Source text: as §1

[6] = molecular target: Serotonin Transporter (Homo sapiens, UniProt P31645); assay: Serotonin transporter binding
Sequence of Serotonin Transporter (P31645 whole entry): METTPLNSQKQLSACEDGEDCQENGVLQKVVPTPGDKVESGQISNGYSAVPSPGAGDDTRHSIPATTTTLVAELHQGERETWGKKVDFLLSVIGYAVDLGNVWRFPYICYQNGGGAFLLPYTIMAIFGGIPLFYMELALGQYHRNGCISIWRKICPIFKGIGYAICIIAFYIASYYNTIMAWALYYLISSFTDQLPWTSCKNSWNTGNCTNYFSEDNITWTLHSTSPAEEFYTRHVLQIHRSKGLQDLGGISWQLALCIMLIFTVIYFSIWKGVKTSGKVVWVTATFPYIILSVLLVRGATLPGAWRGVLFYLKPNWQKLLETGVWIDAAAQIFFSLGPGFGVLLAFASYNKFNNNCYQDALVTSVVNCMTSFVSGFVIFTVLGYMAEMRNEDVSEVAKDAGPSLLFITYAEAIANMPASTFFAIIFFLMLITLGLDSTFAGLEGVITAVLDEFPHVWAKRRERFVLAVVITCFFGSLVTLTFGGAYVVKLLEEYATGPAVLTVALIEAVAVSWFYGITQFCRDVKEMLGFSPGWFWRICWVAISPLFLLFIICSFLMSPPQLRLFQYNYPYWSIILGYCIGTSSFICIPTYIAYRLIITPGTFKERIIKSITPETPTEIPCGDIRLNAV
Source text: as §1

[7] = molecular target: T1, 5-HT2B; assay: 5-HT2B agonist functional activity; assay type: biochemical; conditions: agonist mode
Source text: as §1

[8] = threshold efficacy dose, 6 hr. after treatment, 4 parameter logistic regression, freebase
[9] = within 10 times the most conservative efficacy dose (0.78 mg/kg)

Sequence of hERG Channel (Q12809 whole entry): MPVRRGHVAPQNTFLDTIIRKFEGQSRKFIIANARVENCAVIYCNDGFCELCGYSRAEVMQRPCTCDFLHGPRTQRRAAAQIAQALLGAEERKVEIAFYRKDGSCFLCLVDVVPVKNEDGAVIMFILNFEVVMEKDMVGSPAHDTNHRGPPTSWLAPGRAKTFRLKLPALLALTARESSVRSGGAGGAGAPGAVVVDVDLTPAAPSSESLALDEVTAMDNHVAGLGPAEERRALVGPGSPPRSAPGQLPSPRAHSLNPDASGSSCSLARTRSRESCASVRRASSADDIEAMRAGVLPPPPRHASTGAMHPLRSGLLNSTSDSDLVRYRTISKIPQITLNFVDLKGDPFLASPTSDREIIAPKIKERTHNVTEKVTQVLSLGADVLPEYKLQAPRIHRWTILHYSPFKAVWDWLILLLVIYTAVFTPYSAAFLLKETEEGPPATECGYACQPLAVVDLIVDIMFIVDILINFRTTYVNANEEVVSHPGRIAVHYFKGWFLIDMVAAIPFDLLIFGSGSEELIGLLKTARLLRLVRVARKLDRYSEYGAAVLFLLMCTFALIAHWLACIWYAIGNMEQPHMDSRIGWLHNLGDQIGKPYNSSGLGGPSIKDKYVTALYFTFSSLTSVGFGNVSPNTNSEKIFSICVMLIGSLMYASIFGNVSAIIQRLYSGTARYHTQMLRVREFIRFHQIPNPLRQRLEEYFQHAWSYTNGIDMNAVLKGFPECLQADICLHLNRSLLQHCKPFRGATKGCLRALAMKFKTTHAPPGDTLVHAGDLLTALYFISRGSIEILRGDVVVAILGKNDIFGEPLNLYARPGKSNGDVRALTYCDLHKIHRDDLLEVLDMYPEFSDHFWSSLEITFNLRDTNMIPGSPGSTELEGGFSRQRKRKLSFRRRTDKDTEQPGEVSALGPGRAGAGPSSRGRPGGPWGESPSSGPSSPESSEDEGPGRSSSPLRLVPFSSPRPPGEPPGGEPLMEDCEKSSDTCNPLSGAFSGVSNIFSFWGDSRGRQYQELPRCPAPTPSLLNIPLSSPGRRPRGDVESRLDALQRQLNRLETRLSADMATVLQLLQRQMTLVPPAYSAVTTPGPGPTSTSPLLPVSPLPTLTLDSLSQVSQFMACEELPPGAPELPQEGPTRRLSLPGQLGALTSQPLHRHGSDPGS

Cc1ccc2c(c1)Oc1sc(C3CC3)cc1C(N1CCN(CC(C)(C)C(=O)O)CC1)=N2 [Example 2, 3-[4-(2-Cyclopropyl-8-methyl-thieno[2,3-b][1,5]benzoxazepin-4-yl)piperazin-1-yl]-2,2-dimethyl-propanoic acid dihydrochloride]
hERG Channel (μM) [1]: 53% inhibition | Ki [2]: 118 nM | Kb [3]: 93.4 nM | Rebound Insomnia Adj. Mean ([4]; 0.025 mg/kg PO): 0.40 min | Cumulative Total sleep Adj. Mean ([4]; 0.025 mg/kg PO): 3.6 min | REM inhibition Adj. Mean ([4]; 0.025 mg/kg PO): 5.0 min | Average Sleep Bout Adj. Mean ([4]; 0.025 mg/kg PO): 1.08 n-fold increase over vehicle controls | Longest Sleep Bout Adj. Mean ([4]; 0.025 mg/kg PO): 1.26 n-fold increase over vehicle controls | Cumulative NREM sleep Adj. Mean ([4]; 0.025 mg/kg PO): -2.3 min | Locomotor Activity Intensity Adj. Mean ([4]; 0.025 mg/kg PO): −1.40 LMA counts per minute of EEG-defined wakefulness | Rebound Insomnia Adj. Mean ([4]; 0.1 mg/kg PO): -0.027 min | Cumulative Total sleep Adj. Mean ([4]; 0.1 mg/kg PO): 16.9 min | REM inhibition Adj. Mean ([4]; 0.1 mg/kg PO): -0.71 min | Average Sleep Bout Adj. Mean ([4]; 0.1 mg/kg PO): 1.19 n-fold increase over vehicle controls | Longest Sleep Bout Adj. Mean ([4]; 0.1 mg/kg PO): 1.07 n-fold increase over vehicle controls | Cumulative NREM sleep Adj. Mean ([4]; 0.1 mg/kg PO): 15.4 min | Locomotor Activity Intensity Adj. Mean ([4]; 0.1 mg/kg PO): 0.41 LMA counts per minute of EEG-defined wakefulness | Rebound Insomnia Adj. Mean ([4]; 0.25 mg/kg PO): 2.2 min | Cumulative Total sleep Adj. Mean ([4]; 0.25 mg/kg PO): 23.0 min | REM inhibition Adj. Mean ([4]; 0.25 mg/kg PO): 2.8 min | Average Sleep Bout Adj. Mean ([4]; 0.25 mg/kg PO): 1.34 n-fold increase over vehicle controls | Longest Sleep Bout Adj. Mean ([4]; 0.25 mg/kg PO): 1.55 n-fold increase over vehicle controls | Cumulative NREM sleep Adj. Mean ([4]; 0.25 mg/kg PO): 19.1 min | Locomotor Activity Intensity Adj. Mean ([4]; 0.25 mg/kg PO): −0.31 LMA counts per minute of EEG-defined wakefulness | Rebound Insomnia Adj. Mean ([4]; 0.5 mg/kg PO): -5.0 min | Cumulative Total sleep Adj. Mean ([4]; 0.5 mg/kg PO): 32.6 min | REM inhibition Adj. Mean ([4]; 0.5 mg/kg PO): 2.3 min | Average Sleep Bout Adj. Mean ([4]; 0.5 mg/kg PO): 1.59 n-fold increase over vehicle controls | Longest Sleep Bout Adj. Mean ([4]; 0.5 mg/kg PO): 1.81 n-fold increase over vehicle controls | Cumulative NREM sleep Adj. Mean ([4]; 0.5 mg/kg PO): 30.6 min | Locomotor Activity Intensity Adj. Mean ([4]; 0.5 mg/kg PO): −1.30 LMA counts per minute of EEG-defined wakefulness | Rebound Insomnia Adj. Mean ([4]; 1 mg/kg PO): -0.6 min | Cumulative Total sleep Adj. Mean ([4]; 1 mg/kg PO): 33.2 min | REM inhibition Adj. Mean ([4]; 1 mg/kg PO): 1.2 min | Average Sleep Bout Adj. Mean ([4]; 1 mg/kg PO): 1.60 n-fold increase over vehicle controls | Longest Sleep Bout Adj. Mean ([4]; 1 mg/kg PO): 2.16 n-fold increase over vehicle controls | Cumulative NREM sleep Adj. Mean ([4]; 1 mg/kg PO): 31.0 min | Locomotor Activity Intensity Adj. Mean ([4]; 1 mg/kg PO): −2.33 LMA counts per minute of EEG-defined wakefulness | Rebound Insomnia Adj. Mean ([4]; 3 mg/kg PO): 1.6 min | Cumulative Total sleep Adj. Mean ([4]; 3 mg/kg PO): 31.6 min | REM inhibition Adj. Mean ([4]; 3 mg/kg PO): 0.042 min | Average Sleep Bout Adj. Mean ([4]; 3 mg/kg PO): 1.92 n-fold increase over vehicle controls | Longest Sleep Bout Adj. Mean ([4]; 3 mg/kg PO): 2.16 n-fold increase over vehicle controls | Cumulative NREM sleep Adj. Mean ([4]; 3 mg/kg PO): 30.1 min | Locomotor Activity Intensity Adj. Mean ([4]; 3 mg/kg PO): 0.01 LMA counts per minute of EEG-defined wakefulness | Rebound Insomnia Adj. Mean ([4]; 10 mg/kg PO): 3.3 min | Cumulative Total sleep Adj. Mean ([4]; 10 mg/kg PO): 26.3 min | REM inhibition Adj. Mean ([4]; 10 mg/kg PO): -7.3 min | Average Sleep Bout Adj. Mean ([4]; 10 mg/kg PO): 1.56 n-fold increase over vehicle controls | Longest Sleep Bout Adj. Mean ([4]; 10 mg/kg PO): 2.12 n-fold increase over vehicle controls | Cumulative NREM sleep Adj. Mean ([4]; 10 mg/kg PO): 26.9 min | Locomotor Activity Intensity Adj. Mean ([4]; 10 mg/kg PO): −0.89 LMA counts per minute of EEG-defined wakefulness | REM sleep inhibition (in words) ([4]; at 3 mg/kg): without significant | cumulative NREM sleep time (in words) ([4]; at 3 mg/kg): significantly increase | cumulative total sleep time (in words) ([4]; at 3 mg/kg): significantly increase | inhibition of locomotor intensity (LMI) (in words) ([4]; at 3 mg/kg): without significant | rebound insomnia (in words) ([4]; at 3 mg/kg): without significant | REM sleep inhibition versus threshold value ([4]; at 10 mg/kg, threshold −10 min. cumulative REM sleep (lower confidence limit)): exceeds the threshold value | change in awake time following treatment (dose response curve, FIG. 2) ([4]; dose response): does not result in rebound insomnia | change in cumulative REM sleep time (dose response curve, FIG. 1) ([4]; dose response): does not inhibit REM sleep | change in distances moved during periods of wakefulness (dose response curve, FIG. 3) ([4]; dose response): does not inhibit or stimulate normal activity | Estimated efficacy dose (mg/kg), NREM accumulation = 30 min. [4, 8]: 0.78 mg/kg | Estimated efficacy dose (mg/kg), average sleep bout (1.5-fold increase) [4, 8]: 0.33 mg/kg | Estimated efficacy dose (mg/kg), longest sleep bout (1.75-fold increase) [4, 8]: 0.33 mg/kg | Estimated efficacy dose (mg/kg), total sleep accumulation = 25 min. [4, 8]: 0.19 mg/kg | undesired occurrences of REM inhibition [4, 9]: no undesired occurrences | undesired occurrences of rebound insomnia [4, 9]: no undesired occurrences | undesired occurrences of reduction in LMI [4, 9]: no undesired occurrences | Ki [5]: 1060 nM | Ki [6]: > 478 nM | EC50 [7]: > 10000 nM
